From PMC10835127, “Viruses traverse the human proteome through peptide interfaces that can be biomimetically leveraged for drug discovery” (Proceedings of the National Academy of Sciences of the …, 2024)
Read-outs that look alike come from different tables or passages of the source.

How the values were obtained:
[1] = tested on: EBV; conditions: normalized mean of EBV replication readout
[2] = tested on: HIV1 strain NL4-3; type: cell-based; conditions: normalized mean of HIV1 replication readout
[3] = tested on: influenza A H1N1 virus; conditions: 48 hr post-treatment, A549
[4] = tested on: F. novicida (strain U112); type: cell-based
[5] = tested on: HCV replicon; type: cell-based; conditions: for HCV Norm MEAN: normalized mean of HCV replicon readout

Substance: PPPPY [CPEP132]
- EBV Norm MEAN [1]: 1.203
- HIV1 Norm MEAN [2]: 1.621
- Neuraminidase activity normalized to vehicle ([3]; 200 µM peptide): 0,8244
- Neuraminidase activity normalized to vehicle ([3]; 0,823 µM peptide): 0,8549
- Neuraminidase activity normalized to vehicle ([3]; 22,2 µM peptide): 0,9192
- Neuraminidase activity normalized to vehicle ([3]; 2,4691 µM peptide): 0,87
- Neuraminidase activity normalized to vehicle ([3]; 7,4074 µM peptide): 0,8306
- Neuraminidase activity normalized to vehicle ([3]; 66,6667 µM peptide): 1,0078
- Francisella novicida Norm AUC [4]: 0.9275
- HCV Norm MEAN [5]: 0.2215

Substance: PTAPP [CPEP49]
- EBV Norm MEAN [1]: 0.9513
- HIV1 Norm MEAN [2]: 1.171
- Neuraminidase activity normalized to vehicle ([3]; 200 µM peptide): 0,7922
- Neuraminidase activity normalized to vehicle ([3]; 0,823 µM peptide): 0,6686
- Neuraminidase activity normalized to vehicle ([3]; 22,2 µM peptide): 0,8389
- Neuraminidase activity normalized to vehicle ([3]; 2,4691 µM peptide): 0,6943
- Neuraminidase activity normalized to vehicle ([3]; 7,4074 µM peptide): 0,7716
- Neuraminidase activity normalized to vehicle ([3]; 66,6667 µM peptide): 0,9061
- Francisella novicida Norm AUC [4]: 1.057
- HCV Norm MEAN [5]: 0.1885

Substance: PVHAGPIAP [CPEP87]
- EBV Norm MEAN [1]: 0.6567
- HIV1 Norm MEAN [2]: 0.4
- Neuraminidase activity normalized to vehicle ([3]; 200 µM peptide): 0,6355
- Neuraminidase activity normalized to vehicle ([3]; 0,823 µM peptide): 1,0155
- Neuraminidase activity normalized to vehicle ([3]; 22,2 µM peptide): 0,8043
- Neuraminidase activity normalized to vehicle ([3]; 2,4691 µM peptide): 0,8845
- Neuraminidase activity normalized to vehicle ([3]; 7,4074 µM peptide): 0,906
- Neuraminidase activity normalized to vehicle ([3]; 66,6667 µM peptide): 0,7025
- Francisella novicida Norm AUC [4]: 1.084
- HCV Norm MEAN [5]: 0.2137

Substance: PVHAGPIAPGQMREP [CPEP81]
- EBV Norm MEAN ([1]; peptide screen): 0.3978
- HIV1 Norm MEAN ([2]; peptide screen): 0.8771
- Neuraminidase activity normalized to vehicle ([3]; 200 µM peptide): 0,9395
- Neuraminidase activity normalized to vehicle ([3]; 0,823 µM peptide): 0,9268
- Neuraminidase activity normalized to vehicle ([3]; 22,2 µM peptide): 1,0319
- Neuraminidase activity normalized to vehicle ([3]; 2,4691 µM peptide): 1,0385
- Neuraminidase activity normalized to vehicle ([3]; 7,4074 µM peptide): 1,0221
- Neuraminidase activity normalized to vehicle ([3]; 66,6667 µM peptide): 1,026
- Francisella novicida Norm AUC [4]: 1.038
- HCV Norm MEAN ([5]; peptide screen): 0.6759

Substance: PVQES [CPEP44]
- EBV Norm MEAN [1]: 1.192
- HIV1 Norm MEAN [2]: 2.9976
- Neuraminidase activity normalized to vehicle ([3]; 200 µM peptide): 0,8825
- Neuraminidase activity normalized to vehicle ([3]; 0,823 µM peptide): 0,8116
- Neuraminidase activity normalized to vehicle ([3]; 22,2 µM peptide): 0,9052
- Neuraminidase activity normalized to vehicle ([3]; 2,4691 µM peptide): 0,843
- Neuraminidase activity normalized to vehicle ([3]; 7,4074 µM peptide): 0,7952
- Neuraminidase activity normalized to vehicle ([3]; 66,6667 µM peptide): 1,0152
- Francisella novicida Norm AUC [4]: 0.7515
- HCV Norm MEAN [5]: 0.1889

Substance: PVQLSYYD [CPEP144]
- EBV Norm MEAN [1]: 1.072
- HIV1 Norm MEAN [2]: 1.139
- Neuraminidase activity normalized to vehicle ([3]; 200 µM peptide): 0,7318
- Neuraminidase activity normalized to vehicle ([3]; 0,823 µM peptide): 1,0036
- Neuraminidase activity normalized to vehicle ([3]; 22,2 µM peptide): 0,9081
- Neuraminidase activity normalized to vehicle ([3]; 2,4691 µM peptide): 0,8026
- Neuraminidase activity normalized to vehicle ([3]; 7,4074 µM peptide): 0,9626
- Neuraminidase activity normalized to vehicle ([3]; 66,6667 µM peptide): 0,8536
- Francisella novicida Norm AUC [4]: 1.621
- activity in HCV screen (in words) ([5]; 20 µM peptide, Huh7, replicon luciferase): peptide inhibiting HCV
- HCV Norm MEAN [5]: 0.1325

Substance: PYQLT [CPEP58]
- EBV Norm MEAN [1]: 0.8535
- HIV1 Norm MEAN [2]: 1.506
- Neuraminidase activity normalized to vehicle ([3]; 200 µM peptide): 0,7155
- Neuraminidase activity normalized to vehicle ([3]; 0,823 µM peptide): 0,7664
- Neuraminidase activity normalized to vehicle ([3]; 22,2 µM peptide): 0,8252
- Neuraminidase activity normalized to vehicle ([3]; 2,4691 µM peptide): 0,7115
- Neuraminidase activity normalized to vehicle ([3]; 7,4074 µM peptide): 0,806
- Neuraminidase activity normalized to vehicle ([3]; 66,6667 µM peptide): 0,8444
- Francisella novicida Norm AUC [4]: 0.486
- HCV Norm MEAN [5]: 0.1961

Substance: QILVESPTVLESGTKE [CPEP80]
- EBV Norm MEAN ([1]; peptide screen): 0.8761
- HIV1 Norm MEAN ([2]; peptide screen): 0.6346
- Neuraminidase activity normalized to vehicle ([3]; 200 µM peptide): 0,8685
- Neuraminidase activity normalized to vehicle ([3]; 0,823 µM peptide): 1,0444
- Neuraminidase activity normalized to vehicle ([3]; 22,2 µM peptide): 1,1492
- Neuraminidase activity normalized to vehicle ([3]; 2,4691 µM peptide): 1,0137
- Neuraminidase activity normalized to vehicle ([3]; 7,4074 µM peptide): 1,0974
- Neuraminidase activity normalized to vehicle ([3]; 66,6667 µM peptide): 0,9708
- Francisella novicida Norm AUC [4]: 0.9366
- HCV Norm MEAN ([5]; peptide screen): 0.9076

Substance: QRRGRTGRG [CPEP40]
- EBV Norm MEAN [1]: 0.7195
- HIV1 Norm MEAN [2]: 0.4037
- Neuraminidase activity normalized to vehicle ([3]; 200 µM peptide): 0,9281
- Neuraminidase activity normalized to vehicle ([3]; 0,823 µM peptide): 1,0647
- Neuraminidase activity normalized to vehicle ([3]; 22,2 µM peptide): 1,004
- Neuraminidase activity normalized to vehicle ([3]; 2,4691 µM peptide): 0,9944
- Neuraminidase activity normalized to vehicle ([3]; 7,4074 µM peptide): 1,0761
- Neuraminidase activity normalized to vehicle ([3]; 66,6667 µM peptide): 0,9318
- Francisella novicida Norm AUC [4]: 1.732
- HCV Norm MEAN [5]: 0.7133

Substance: RDVLCLRPVGAESR [CPEP94]
- EBV Norm MEAN ([1]; peptide screen): 0.9161
- HIV1 Norm MEAN ([2]; peptide screen): 0.3822
- Neuraminidase activity normalized to vehicle ([3]; 200 µM peptide): 0,3954
- Neuraminidase activity normalized to vehicle ([3]; 0,823 µM peptide): 0,7797
- Neuraminidase activity normalized to vehicle ([3]; 22,2 µM peptide): 0,8926
- Neuraminidase activity normalized to vehicle ([3]; 2,4691 µM peptide): 0,8827
- Neuraminidase activity normalized to vehicle ([3]; 7,4074 µM peptide): 0,8423
- Neuraminidase activity normalized to vehicle ([3]; 66,6667 µM peptide): 0,695
- Francisella novicida Norm AUC [4]: 1.032
- HCV Norm MEAN ([5]; peptide screen): 0.7235

Substance: RHFPRIW [CPEP146]
- EBV Norm MEAN [1]: 1.3564
- HIV1 Norm MEAN [2]: 0.9815
- Neuraminidase activity normalized to vehicle ([3]; 200 µM peptide): 0,7481
- Neuraminidase activity normalized to vehicle ([3]; 0,823 µM peptide): 0,8163
- Neuraminidase activity normalized to vehicle ([3]; 22,2 µM peptide): 0,8498
- Neuraminidase activity normalized to vehicle ([3]; 2,4691 µM peptide): 0,7842
- Neuraminidase activity normalized to vehicle ([3]; 7,4074 µM peptide): 0,7775
- Neuraminidase activity normalized to vehicle ([3]; 66,6667 µM peptide): 0,9221
- Francisella novicida Norm AUC [4]: 1.892
- HCV Norm MEAN [5]: 0.2243
